In data set [1] the target is ALK tyrosine kinase receptor (Homo sapiens, UniProt Q9UM73). The experiment in a line: Inhibition of ALK.
The next data set has as its target Insulin receptor (Homo sapiens, UniProt P06213). The experiment in a line: Inhibition of GST-tagged intracellular domain of IR by homogeneous time-resolved fluorescence assay. The format is single protein.
Data set [2] can be described thus: Half life in human liver microsomes. (Liver microsomes are a subcellular fraction often used to study metabolism.)
The nature of data set [3]: Half life in dog liver microsomes.
The nature of data set [4]: Half life in rat liver microsomes.
Data set [5] is described as follows: Half life in mouse liver microsomes.
The target of data set [6] is T1, Vascular endothelial growth factor receptor 2 (Homo sapiens, UniProt P35968). Kind of data set: Inhibition of human cytoplasmic domain of VEGFR-2 at 1 uM by time-resolved fluorescence assay.
T1 sequence (P35968 whole entry, the tested form may be a part): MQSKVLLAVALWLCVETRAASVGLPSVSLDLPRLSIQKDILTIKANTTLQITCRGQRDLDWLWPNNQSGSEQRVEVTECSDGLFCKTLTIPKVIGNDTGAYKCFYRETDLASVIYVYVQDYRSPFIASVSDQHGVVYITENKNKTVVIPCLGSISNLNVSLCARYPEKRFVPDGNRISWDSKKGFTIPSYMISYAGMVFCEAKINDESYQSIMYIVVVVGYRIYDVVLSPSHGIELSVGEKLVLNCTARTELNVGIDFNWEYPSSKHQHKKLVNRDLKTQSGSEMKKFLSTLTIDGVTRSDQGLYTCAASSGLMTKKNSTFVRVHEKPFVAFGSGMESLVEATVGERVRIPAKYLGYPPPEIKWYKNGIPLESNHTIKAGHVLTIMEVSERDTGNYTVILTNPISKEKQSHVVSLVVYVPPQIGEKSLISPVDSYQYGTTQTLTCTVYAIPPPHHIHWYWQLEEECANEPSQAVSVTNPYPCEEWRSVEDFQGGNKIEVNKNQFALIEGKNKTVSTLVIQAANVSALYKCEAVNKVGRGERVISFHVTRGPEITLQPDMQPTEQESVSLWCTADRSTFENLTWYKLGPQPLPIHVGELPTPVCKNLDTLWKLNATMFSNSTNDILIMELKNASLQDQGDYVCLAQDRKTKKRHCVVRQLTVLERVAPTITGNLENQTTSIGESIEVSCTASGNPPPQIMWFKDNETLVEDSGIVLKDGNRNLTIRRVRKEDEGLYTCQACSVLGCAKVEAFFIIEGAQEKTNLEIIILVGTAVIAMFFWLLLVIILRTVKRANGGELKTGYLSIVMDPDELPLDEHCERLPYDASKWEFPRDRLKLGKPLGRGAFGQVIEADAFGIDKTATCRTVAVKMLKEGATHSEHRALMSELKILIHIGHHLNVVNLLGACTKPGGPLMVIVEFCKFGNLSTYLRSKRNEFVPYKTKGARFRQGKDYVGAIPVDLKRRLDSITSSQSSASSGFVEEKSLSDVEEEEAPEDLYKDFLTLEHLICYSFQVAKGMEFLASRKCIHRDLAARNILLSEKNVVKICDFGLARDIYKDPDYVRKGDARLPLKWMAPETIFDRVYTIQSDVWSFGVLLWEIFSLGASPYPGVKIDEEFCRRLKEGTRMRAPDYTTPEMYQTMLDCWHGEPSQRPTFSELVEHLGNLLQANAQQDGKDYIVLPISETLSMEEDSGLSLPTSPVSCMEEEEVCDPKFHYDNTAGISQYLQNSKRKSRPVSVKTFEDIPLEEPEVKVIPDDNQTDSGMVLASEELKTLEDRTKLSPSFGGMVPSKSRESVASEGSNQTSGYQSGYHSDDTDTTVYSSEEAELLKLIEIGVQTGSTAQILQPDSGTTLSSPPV
A short description of data set [7]: Half life in rat at 1 mg/kg, iv. The format is ADME, organism-based. Details: dose 1 mg/kg, route intravenous. The conditions noted are these: in vivo.
Data set [8] in a line: Volume of distribution in rat at 1 mg/kg, iv. The format is ADME, organism-based. Details: dose 1 mg/kg, route intravenous. The conditions noted are these: in vivo.
Data set [9] in a line: Clearance in rat at 1 mg/kg, iv. The following applies: in vivo. Details: dose 1 mg/kg, route intravenous. The format is ADME, organism-based.
The nature of data set [10]: AUC in rat at 1 mg/kg, iv. The conditions noted are these: plasma. The format is ADME, organism-based. Details: dose 1 mg/kg, route intravenous.
The nature of data set [11]: AUC in rat at 5 mg/kg, po. The format is ADME, organism-based. Details: dose 5 mg/kg, route oral. The following applies: plasma.
Data set [12] concerns the target T1, Vascular endothelial growth factor receptor 2. The experiment in a line: Inhibition of human cytoplasmic domain of VEGFR-2 by time-resolved fluorescence assay.

Structures are written as SMILES.

Chain of ALK tyrosine kinase receptor (Q9UM73 whole entry, the tested form may be a part): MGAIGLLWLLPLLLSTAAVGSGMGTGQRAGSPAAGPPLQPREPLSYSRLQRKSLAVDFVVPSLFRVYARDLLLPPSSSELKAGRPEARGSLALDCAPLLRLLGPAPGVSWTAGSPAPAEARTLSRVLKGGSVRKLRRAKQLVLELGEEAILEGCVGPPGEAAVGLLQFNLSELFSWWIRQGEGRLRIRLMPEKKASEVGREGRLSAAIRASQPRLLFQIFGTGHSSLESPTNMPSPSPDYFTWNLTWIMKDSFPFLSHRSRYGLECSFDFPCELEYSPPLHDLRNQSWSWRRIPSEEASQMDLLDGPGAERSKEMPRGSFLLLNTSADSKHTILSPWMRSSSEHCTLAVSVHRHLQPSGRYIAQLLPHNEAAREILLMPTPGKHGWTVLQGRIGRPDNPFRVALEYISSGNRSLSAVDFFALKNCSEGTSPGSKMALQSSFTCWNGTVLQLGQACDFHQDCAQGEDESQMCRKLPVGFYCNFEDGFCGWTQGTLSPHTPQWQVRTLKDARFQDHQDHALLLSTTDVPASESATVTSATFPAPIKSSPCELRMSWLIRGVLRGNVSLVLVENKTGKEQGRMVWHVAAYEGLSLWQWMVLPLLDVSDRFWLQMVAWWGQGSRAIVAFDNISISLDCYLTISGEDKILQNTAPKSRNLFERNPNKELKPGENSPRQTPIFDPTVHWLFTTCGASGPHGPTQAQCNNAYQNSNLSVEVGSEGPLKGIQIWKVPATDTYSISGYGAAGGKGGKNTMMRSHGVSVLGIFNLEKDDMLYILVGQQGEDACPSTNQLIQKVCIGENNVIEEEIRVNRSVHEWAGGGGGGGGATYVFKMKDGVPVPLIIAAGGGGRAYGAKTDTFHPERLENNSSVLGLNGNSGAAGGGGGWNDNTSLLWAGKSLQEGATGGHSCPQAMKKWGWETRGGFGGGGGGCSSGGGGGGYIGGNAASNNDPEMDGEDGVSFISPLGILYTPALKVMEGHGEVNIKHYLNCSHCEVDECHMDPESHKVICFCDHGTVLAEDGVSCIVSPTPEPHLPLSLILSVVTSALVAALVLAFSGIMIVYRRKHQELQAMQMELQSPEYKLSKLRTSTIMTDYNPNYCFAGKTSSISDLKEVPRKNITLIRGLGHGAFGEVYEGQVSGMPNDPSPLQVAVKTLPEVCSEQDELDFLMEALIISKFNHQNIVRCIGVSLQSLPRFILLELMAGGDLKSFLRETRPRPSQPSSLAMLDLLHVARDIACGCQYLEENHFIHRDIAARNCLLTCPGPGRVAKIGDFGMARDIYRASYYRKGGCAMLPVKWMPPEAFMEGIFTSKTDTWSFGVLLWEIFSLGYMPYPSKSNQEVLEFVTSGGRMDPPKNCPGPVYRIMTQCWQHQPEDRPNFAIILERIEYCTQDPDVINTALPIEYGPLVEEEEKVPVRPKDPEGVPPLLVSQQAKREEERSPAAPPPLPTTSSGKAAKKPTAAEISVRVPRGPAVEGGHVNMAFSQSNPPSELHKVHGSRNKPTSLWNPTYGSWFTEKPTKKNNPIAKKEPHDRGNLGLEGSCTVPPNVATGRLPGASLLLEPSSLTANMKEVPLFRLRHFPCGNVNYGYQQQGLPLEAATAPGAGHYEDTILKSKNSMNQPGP

In the case of `Cc1nc(COc2cccc3c2c(/C=C2\C(=O)NN=C2c2snnc2C)cn3C)cs1`, the 50% inhibitory concentration (IC50) in data set [1] stood at 3000 nM.

`Cn1cc(/C=C2\C(=O)NN=C2c2nccs2)c2c(OCc3ccc(F)cc3)cccc21`: the IC50 in data set [1] was found to be 63 nM.

For `Cc1nnsc1C1=NNC(=O)/C1=C\c1cn(C)c2cccc(OCc3ccccc3F)c12`, on Insulin receptor, the IC50 was above 10000 nM.

`Cc1nnsc1C1=NNC(=O)/C1=C\c1cn(C)c2cccc(OCc3ccccn3)c12` came in with an IC50 in data set [1] of 158 nM.

Compound `Cc1nnsc1C1=NNC(=O)/C1=C\c1cn(C)c2cccc(OCc3ccc(F)cc3)c12` came in with an IC50 against Insulin receptor above 10000 nM.

As to `Cn1cc(/C=C2\C(=O)NN=C2c2nccs2)c2c(OCc3c(F)cccc3Cl)cccc21`, the IC50 at Insulin receptor was determined as 1410 nM.

For `CC(Oc1cccc2c1c(/C=C1\C(=O)NN=C1c1nccs1)cn2C)c1ccccc1` (stereo not drawn), the IC50 against Insulin receptor was above 10000 nM.

The compound `CCOc1cccc2c1c(/C=C1\C(=O)NN=C1c1snnc1C)cn2C` gave an IC50 at Insulin receptor of 998 nM. The half-life in data set [2] (microsomes) was found to be 6 min; in data set [3] (microsomes) it was 5 min; in data set [4] (microsomes), 5 min; in data set [5] (microsomes), 5 min.

With `Cn1cc(/C=C2\C(=O)NN=C2c2nccs2)c2c(OCc3c(F)cccc3F)cccc21`, the 50% inhibitory concentration (IC50) on Insulin receptor came to 428 nM. The half-life in data set [2] (microsomes) was 7 min; in [3] (microsomes), 10 min; in [4] (microsomes) it was 6 min; in data set [5] (microsomes), 6 min.

As to `Cc1nnsc1C1=NNC(=O)/C1=C\c1cn(C)c2cccc(OCc3c(F)ccc(F)c3Cl)c12`, the IC50 at Insulin receptor turned out to be 661 nM. This counts as sub-micromolar.

In turn, `Cn1cc(/C=C2\C(=O)NN=C2c2nc(C(F)(F)F)cs2)c2c(OCc3ccccc3)cccc21` came in with an IC50 in data set [1] of 10000 nM.

In [1], `Cc1nnsc1C1=NNC(=O)/C1=C\c1cn(C)c2cccc(OCCN(C)C)c12` had an IC50 of 291 nM. Against the preceding compound, the IC50 is about 34-fold lower.

With `Cn1cc(/C=C2\C(=O)NN=C2c2cccnc2)c2c(OCc3ccccc3)cccc21`, the concentration for half-maximal inhibition (IC50) in data set [1] was determined as 54 nM.

For the compound `Cn1cc(/C=C2\C(=O)NN=C2c2nccs2)c2c(OCc3cccc(F)c3F)cccc21`, at Insulin receptor, the IC50 amounted to 6500 nM. Also, the half-life in [2] (liver microsomes) is 14 min; in data set [3] (liver microsomes), 12 min; in [4] (liver microsomes), 10 min; in [5] (liver microsomes), 8 min.

At Insulin receptor, `Cn1cc(/C=C2\C(=O)NN=C2c2nccs2)c2c(OCc3ccccc3)cccc21` yielded an IC50 of 9120 nM. Also, the half-life in data set [2] (microsomes) is 30 min; in data set [3] (microsomes), 22 min; in data set [4] (microsomes), 30 min; in data set [5] (microsomes), 25 min; in data set [7] it was 41.4 min. The compound also yielded an inhibition in data set [6] of 50%. This compound also registered a Vd in data set [8] of 1.2 L/kg. This compound also returned a clearance in [9] of 19.6 mL/min. Moreover, the AUC in data set [10] turned out to be 972 ng·h/mL; in data set [11], 13 ng·h/mL.

For the compound `Cn1cc(/C=C2\C(=O)NN=C2c2nccs2)c2c(OCc3cccc(F)c3)cccc21`, the IC50 at Insulin receptor was above 1000 nM. The half-life in data set [2] (liver microsomes) worked out at 10 min; in data set [3] (liver microsomes) it was 8 min; in data set [4] (liver microsomes), 8 min; in data set [5] (liver microsomes) it was 6 min. In data set [6], this compound yielded an inhibition of 50%.

`Cn1cc(/C=C2\C(=O)NN=C2c2cccs2)c2c(OCc3ccccc3)cccc21` yielded an IC50 in data set [1] of 104 nM.

In [1], `CN(C)c1nnc(C2=NNC(=O)/C2=C\c2cn(C)c3cccc(OCc4ccccc4)c23)s1` gave an IC50 of 4600 nM.

As to `Cc1nnsc1C1=NNC(=O)/C1=C\c1cn(C)c2cccc(OCc3c(F)cccc3F)c12`, the IC50 against Insulin receptor is above 1000 nM.

Compound `Cc1nnsc1C1=NNC(=O)/C1=C\c1cn(C)c2cccc(OCc3c(F)ccc(Cl)c3F)c12` gave an IC50 on Insulin receptor of 861 nM.

Compound `Cc1nnsc1C1=NNC(=O)/C1=C\c1cn(C)c2cccc(OCc3c(F)cccc3Cl)c12` had an IC50 against Insulin receptor of 720 nM.

In turn, `Cn1cc(/C=C2\C(=O)NN=C2c2nccs2)c2c(OCc3ccccc3F)cccc21` gave an IC50 on Insulin receptor above 10000 nM.

At Insulin receptor, `Cc1nnsc1C1=NNC(=O)/C1=C\c1cn(C)c2cccc(OCc3cccc(F)c3)c12` returned an IC50 above 10000 nM.

Regarding `Cn1cc(/C=C2\C(=O)NN=C2c2nccs2)c2c(OCc3ccc(F)cc3F)cccc21`, the IC50 in data set [1] was 229 nM. This counts as sub-micromolar.

The compound `Cc1nnsc1C1=NNC(=O)/C1=C\c1cn(C)c2cccc(OCc3ccc(F)cc3F)c12` gave an IC50 against Insulin receptor above 10000 nM.

As to `Cc1nnsc1C1=NNC(=O)/C1=C\c1cn(C)c2cccc(OCc3ccccc3)c12`, the IC50 is above 300 nM in data set [12] and above 10000 nM at Insulin receptor. Also, the half-life in data set [2] (liver microsomes) is 32 min; in [3] (liver microsomes), 29 min; in data set [4] (liver microsomes) it was above 40 min; in data set [5] (liver microsomes), above 40 min.

What is called IC50 is the concentration at which inhibition is half-maximal. The low end stands for higher potency, the high end for lower potency. By half-life is commonly meant the time in which the quantity being followed falls by half. By inhibition is commonly meant the change of the read-out against control, counted positive when it falls. One may read the Vd as the apparent volume that relates the amount in the body to the concentration in plasma or blood. The low end stands for confinement near the circulation, the high end for extensive tissue distribution. As a reminder, the clearance is the volume of plasma or blood freed of the substance per unit of time. Read a high clearance as efficient removal. The term AUC denotes concentration integrated over time.

These data come from ChEMBL document CHEMBL1921676, “Pyrazolone-based anaplastic lymphoma kinase (ALK) inhibitors: control of selectivity by a benzyloxy group” (Bioorg Med Chem Lett, 2011).
